Columns and labels:
Assay type in all cases: cell-based
CCRF-CEM = experiment: NCI screen, growth of human tumor cells: Leukemia CCRF-CEM; details: CCRF-CEM (Leukemia), 10^−4 molar
In short: (§1)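 Growth of human tumor cells, expressed as percent, was determined in the NCI screen. Test data list the cancer type and the molar concentration applied.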

HL-60 (TB) = experiment: NCI screen, growth of human tumor cells: Leukemia HL-60 (TB); details: HL-60 (TB) (Leukemia), 10^−4 molar
Experimental: (§2) In the NCI screening process, each compound was tested and described by a minimum of 60 data points. The test data include, but are not limited to the type of cancer, the molar concentration used in the screen, and the percent growth of the cancer. In some cases, NMR and elemental analysis were used for structural assignment.

MOLT-4 = experiment: NCI screen, growth of human tumor cells: Leukemia MOLT-4; details: MOLT-4 (Leukemia), 10^−4 molar
In short: as §1

RPMI-8226 = experiment: NCI screen, growth of human tumor cells: Leukemia RPMI-8226; details: RPMI-8226 (Leukemia), 10^−4 molar
In short: as §1

SR = experiment: NCI screen, growth of human tumor cells: Leukemia SR; details: SR (Leukemia), 10^−4 molar
In short: as §1

HOP-62 = experiment: NCI screen, growth of human tumor cells: Non-Small Cell Lung HOP-62
In short: as §1

NCI-H522 = experiment: NCI screen, growth of human tumor cells: Non-Small Cell Lung NCI-H522; details: NCI-H522 (Non-Small Cell Lung), 10^−4 molar
In short: as §1

NCI-H23 = experiment: NCI screen, growth of human tumor cells: Non-Small Cell Lung NCI-H23; details: NCI-H23 (Non-Small Cell Lung), 10^−4 molar
In short: as §1

HCT-116 = experiment: NCI screen, growth of human tumor cells: Colon Cancer HCT-116; details: HCT-116 (Colon Cancer), 10^−4 molar
In short: as §1

HCT-15 = experiment: NCI screen, growth of human tumor cells: Colon Cancer HCT-15; details: HCT-15 (Colon Cancer), 10^−4 molar
In short: as §1

KM12 = experiment: NCI screen, growth of human tumor cells: Colon Cancer KM12; details: KM12 (Colon Cancer), 10^−4 molar
In short: as §1

SF-268 = experiment: NCI screen, growth of human tumor cells: CNS Cancer SF-268
In short: as §1

SF-295 = experiment: NCI screen, growth of human tumor cells: CNS Cancer SF-295
In short: as §1

SF-539 = experiment: NCI screen, growth of human tumor cells: CNS Cancer SF-539
In short: as §1

SNB-75 = experiment: NCI screen, growth of human tumor cells: CNS Cancer SNB-75; details: SNB-75 (CNS Cancer), 10^−4 molar
In short: as §1

U-251 = experiment: NCI screen, growth of human tumor cells: CNS Cancer U-251; details: U-251 (CNS Cancer), 10^−4 molar
In short: as §1

LOXIMVI = experiment: NCI screen, growth of human tumor cells: Melanoma LOXIMVI; details: LOXIMVI (Melanoma), 10^−4 molar
In short: as §1

SK-MEL-2 = experiment: NCI screen, growth of human tumor cells: Melanoma SK-MEL-2; details: SK-MEL-2 (Melanoma), 10^−4 molar
In short: as §1

UACC-62 = experiment: NCI screen, growth of human tumor cells: Melanoma UACC-62
In short: as §1

SK-OV-3 = experiment: NCI screen, growth of human tumor cells: Ovarian Cancer SK-OV-3; details: SK-OV-3 (Ovarian Cancer), 10^−4 molar
Experimental: as §2

OVCAR-3 = experiment: NCI screen, growth of human tumor cells: Ovarian Cancer OVCAR-3; details: OVCAR-3 (Ovarian Cancer), 10^−4 molar
In short: as §1

OVCAR-4 = experiment: NCI screen, growth of human tumor cells: Ovarian Cancer OVCAR-4; details: OVCAR-4 (Ovarian Cancer), 10^−4 molar
In short: as §1

786-0 = experiment: NCI screen, growth of human tumor cells: Renal Cancer 786-0; details: 786-0 (Renal Cancer), 10^−4 molar
In short: as §1

ACHN = experiment: NCI screen, growth of human tumor cells: Renal Cancer ACHN; details: ACHN (Renal Cancer), 10^−4 molar
In short: as §1

RXF-393 = experiment: NCI screen, growth of human tumor cells: Renal Cancer RXF-393; details: RXF-393 (Renal Cancer), 10^−4 molar
In short: as §1

SN12C = experiment: NCI screen, growth of human tumor cells: Renal Cancer SN12C; details: SN12C (Renal Cancer), 10^−4 molar
In short: as §1

CAKI-1 = experiment: NCI screen, growth of human tumor cells: Renal Cancer CAKI-1; details: CAKI-1 (Renal Cancer), 10^−4 molar
In short: as §1

MCF 7 = experiment: NCI screen, growth of human tumor cells: Breast Cancer MCF 7; details: MCF 7 (Breast Cancer), 10^−4 molar
In short: as §1

MCF7/ADR-RES = experiment: NCI screen, growth of human tumor cells: Breast Cancer MCF7/ADR-RES; details: MCF7/ADR-RES
In short: as §1

BT-549 = experiment: NCI screen, growth of human tumor cells: Breast Cancer BT-549
In short: as §1

HS 578T = experiment: NCI screen, growth of human tumor cells: Breast Cancer HS 578T; details: HS 578T (Breast Cancer), 10^−4 molar
In short: as §1

T-47D = experiment: NCI screen, growth of human tumor cells: Breast Cancer T-47D; details: T-47D (Breast Cancer), 10^−4 molar
Experimental: as §2

human cancer cells = experiment: NCI screen summary over the cancers tested (negative growth of human cancer cells); details: 10^−4 M conc.; cancers with negative growth / cancers tested
Experimental: as §2
The derivatives in the tables are grouped using the same category as in the tables 1-6.

## N#CCCC1(CCC#N)S(=O)(=O)OCCOS1(=O)=O [NSC 665941]
CCRF-CEM
  percent of growth of human tumor cells: 5%
HL-60 (TB)
  percent of growth of human tumor cells: −17%
MOLT-4
  percent of growth of human tumor cells: 6%
RPMI-8226
  percent of growth of human tumor cells: 24%
SR
  percent of growth of human tumor cells: 10%
HOP-62; HOP-62, 10^−4 molar
  % Growth: 16%
HOP-62; HOP-62, 10^−5 molar
  % Growth: 46%
HOP-62; HOP-62, 10^−6 molar
  % Growth: 48%
HOP-62; HOP-62, 10^−7 molar
  % Growth: 25%
HOP-62; HOP-62, 10^−8 molar
  % Growth: 25%
NCI-H522
  percent of growth of human tumor cells: 18%
NCI-H23
  percent of growth of human tumor cells: 25%
HCT-116
  percent of growth of human tumor cells: 26%
HCT-15
  percent of growth of human tumor cells: 27%
KM12
  percent of growth of human tumor cells: 27%
SF-268; SF-268, 10^−4 molar
  % Growth: 24%
SF-268; SF-268, 10^−5 molar
  % Growth: 48%
SF-295; SF-295, 10^−4 molar
  % Growth: 7%
SF-295; SF-295, 10^−5 molar
  % Growth: 47%
SF-539; SF-539, 10^−4 molar
  % Growth: −48%
SF-539; SF-539, 10^−5 molar
  % Growth: 47%
SNB-75
  percent of growth of human tumor cells: 28%
U-251
  percent of growth of human tumor cells: 20%
LOXIMVI
  percent of growth of human tumor cells: 5%
SK-MEL-2
  percent of growth of human tumor cells: 26%
UACC-62; UACC-62, 10^−4 molar
  % Growth: 9%
UACC-62; UACC-62, 10^−5 molar
  % Growth: 49%
SK-OV-3
  percent of growth of human tumor cells: 28%
OVCAR-3
  percent of growth of human tumor cells: 12%
OVCAR-4
  percent of growth of human tumor cells: 4%
786-0
  percent of growth of human tumor cells: 6%
ACHN
  percent of growth of human tumor cells: 13%
RXF-393
  percent of growth of human tumor cells: 23%
SN12C
  percent of growth of human tumor cells: 15%
CAKI-1
  percent of growth of human tumor cells: 28%
MCF 7
  percent of growth of human tumor cells: 18%
MCF7/ADR-RES; 10^−4 molar
  % Growth: 1%
MCF7/ADR-RES; 10^−5 molar
  % Growth: 63%
MCF7/ADR-RES; 10^−6 molar
  % Growth: 69%
MCF7/ADR-RES; 10^−7 molar
  % Growth: 68%
MCF7/ADR-RES; 10^−8 molar
  % Growth: 56%
BT-549; BT-549 (Breast Cancer), 10^−4 molar
  percent of growth of human tumor cells: 18%
BT-549; BT-549, 10^−4 molar
  % Growth: 18%
BT-549; BT-549, 10^−5 molar
  % Growth: 33%
HS 578T
  percent of growth of human tumor cells: −8%
T-47D
  percent of growth of human tumor cells: 25%
Human cancer cells
  Percentage of cancers showing negative growth cancers tested: 10^−4 M conc. = 3/32 = 9%

From patent US8124793B2, “Derivatives of ethylene methanedisulfonate as cancer chemotherapeutic agents” (priority 2007, dated 2012)
